Legend:
Format in all cases: in vivo
Conditions in all cases: treatment dosage 320 g/ha
soybean [1] = assay: Test Example 4: foliar treatment, effect on crop; d: soybean
Outline: (§1)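 Seeds are spot-sown into sterilized diluvial soil and covered with about 1.5 cm of soil. After 14 days' greenhouse growth at 25 to 30° C, plants are sprayed on stems and leaves with diluted emulsion at the stated g/ha rate, then scored at 3 weeks.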

rapeseed [2] = assay: Test Example 3: soil treatment, effect on crop; g: rapeseed
Outline: (§2)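 Crop and weed responses were judged three weeks after a uniform surface spray of the water-diluted emulsion at the given g/ha rate. Seeds sat beneath about 1.5 cm of sterilized diluvial soil, and boxes stood in a greenhouse at 25 to 30° C.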

beet [3] = assay: Test Example 4: foliar treatment, effect on crop; f: beet
Outline: as §1

fig-leafed goosefoot [4] = assay: Test Example 3: weedkilling efficacy through soil treatment; M: fig-leafed goosefoot
Outline: as §2

black-grass [5] = assay: Test Example 4: weedkilling efficacy by foliar treatment; H: black-grass
Outline: as §1

crabgrass [6] = assay: Test Example 4: weedkilling efficacy by foliar treatment; D: crabgrass
Outline: as §1

catchweed [7] = assay: Test Example 3: weedkilling efficacy through soil treatment; O: catchweed
Outline: as §2

green foxtail [8] = assay: Test Example 4: weedkilling efficacy by foliar treatment; E: green foxtail
Outline: as §1

Italian ryegrass [9] = assay: Test Example 3: weedkilling efficacy through soil treatment; I: Italian ryegrass
Outline: as §2

redroot pigweed [10] = assay: Test Example 4: weedkilling efficacy by foliar treatment; L: redroot pigweed
Outline: as §1

Indian mallow [11] = assay: Test Example 4: weedkilling efficacy by foliar treatment; K: Indian mallow
Outline: as §1

Indian mallow [12] = assay: Test Example 3: weedkilling efficacy through soil treatment; K: Indian mallow
Outline: as §2

crabgrass [13] = assay: Test Example 3: weedkilling efficacy through soil treatment; D: crabgrass
Outline: as §2

fig-leafed goosefoot [14] = assay: Test Example 4: weedkilling efficacy by foliar treatment; M: fig-leafed goosefoot
Outline: as §1

common wind-grass [15] = assay: Test Example 4: weedkilling efficacy by foliar treatment; J: common wind-grass
Outline: as §1

directly sown rice [16] = assay: Test Example 3: soil treatment, effect on crop; b: directly sown rice
Outline: as §2

rapeseed [17] = assay: Test Example 4: foliar treatment, effect on crop; g: rapeseed
Outline: as §1

wheat [18] = assay: Test Example 4: foliar treatment, effect on crop; e: wheat
Outline: as §1

catchweed [19] = assay: Test Example 4: weedkilling efficacy by foliar treatment; O: catchweed
Outline: as §1

bulrush [20] = assay: Test Example 1: weedkilling efficacy, preemergent weed treatment in the submerged state; B: bulrush
Outline: (§3)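 Emulsion diluted with water to the specified per-hectare dosage is applied onto flood water (4 cm) over alluvial soil on the sowing day, with barnyard grass, bulrush and pondweed seeded and rice (2.5-leaf) transplanted; plants grow at 25–30 °C and are rated at 3 weeks.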

barnyard grass [21] = assay: Test Example 4: weedkilling efficacy by foliar treatment; F: barnyard grass
Outline: as §1

wild oat [22] = assay: Test Example 3: weedkilling efficacy through soil treatment; G: wild oat
Outline: as §2

birds-eye speedwell = assay: Test Example 3: weedkilling efficacy through soil treatment; p: birds-eye speedwell
Outline: as §2

chickweed [23] = assay: Test Example 4: weedkilling efficacy by foliar treatment; N: chickweed
Outline: as §1

oval-leafed pondweed [24] = assay: Test Example 1: weedkilling efficacy, preemergent weed treatment in the submerged state; C: oval-leafed pondweed
Outline: as §3

black-grass [25] = assay: Test Example 3: weedkilling efficacy through soil treatment; H: black-grass
Outline: as §2

chickweed [26] = assay: Test Example 3: weedkilling efficacy through soil treatment; N: chickweed
Outline: as §2

barnyard grass [27] = assay: Test Example 1: weedkilling efficacy, preemergent weed treatment in the submerged state; A: barnyard grass
Outline: as §3

common wind-grass [28] = assay: Test Example 3: weedkilling efficacy through soil treatment; J: common wind-grass
Outline: as §2

transplanted rice = assay: Test Example 1: preemergent weed treatment in the submerged state, effect on crop; a: transplanted rice
Outline: as §3

corn [29] = assay: Test Example 3: soil treatment, effect on crop; c: corn
Outline: as §2

directly sown rice [30] = assay: Test Example 4: foliar treatment, effect on crop; b: directly sown rice
Outline: as §1

green foxtail [31] = assay: Test Example 3: weedkilling efficacy through soil treatment; E: green foxtail
Outline: as §2

barnyard grass [32] = assay: Test Example 3: weedkilling efficacy through soil treatment; F: barnyard grass
Outline: as §2

redroot pigweed [33] = assay: Test Example 3: weedkilling efficacy through soil treatment; L: redroot pigweed
Outline: as §2

bulrush [34] = assay: Test Example 2: weedkilling efficacy, growth period weed treatment in the submerged state; B: bulrush
Outline: (§4)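 First, alluvial soil in pots is flooded to 4 cm and mixed seed is sown. Next, plants grow in a greenhouse at 25 to 30° C until the 1-2 leaf stage. Then diluted emulsion is applied onto the water surface at the given g/ha rate, and injury is assessed after 3 weeks.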

wheat [35] = assay: Test Example 3: soil treatment, effect on crop; e: wheat
Outline: as §2

barnyard grass [36] = assay: Test Example 2: weedkilling efficacy, growth period weed treatment in the submerged state; A: barnyard grass
Outline: as §4

Italian ryegrass [37] = assay: Test Example 4: weedkilling efficacy by foliar treatment; I: Italian ryegrass
Outline: as §1

corn [38] = assay: Test Example 4: foliar treatment, effect on crop; c: corn
Outline: as §1

beet [39] = assay: Test Example 3: soil treatment, effect on crop; f: beet
Outline: as §2

soybean [40] = assay: Test Example 3: soil treatment, effect on crop; d: soybean
Outline: as §2

wild oat [41] = assay: Test Example 4: weedkilling efficacy by foliar treatment; G: wild oat
Outline: as §1

oval-leafed pondweed [42] = assay: Test Example 2: weedkilling efficacy, growth period weed treatment in the submerged state; C: oval-leafed pondweed
Outline: as §4

CC1=C(c2ccccc2)C(=O)N(C(C)(C)C(=O)Nc2ncccc2F)CO1 [B-2-24]
d (soybean) effect on crop grade (soybean [1]): 0 (weed kill ratio 5% or less (practically no effect)) | g (rapeseed) effect on crop grade (rapeseed [2]): 0 (weed kill ratio 5% or less (practically no effect)) | f (beet) effect on crop grade (beet [3]): 0 (weed kill ratio 5% or less (practically no effect)) | M (fig-leafed goosefoot) weedkilling efficacy grade (fig-leafed goosefoot [4]): 0 (weed kill ratio 5% or less (practically no effect)) | H (black-grass) weedkilling efficacy grade (black-grass [5]): 0 (weed kill ratio 5% or less (practically no effect)) | D (crabgrass) weedkilling efficacy grade (crabgrass [6]): 0 (weed kill ratio 5% or less (practically no effect)) | O (catchweed) weedkilling efficacy grade (catchweed [7]): 0 (weed kill ratio 5% or less (practically no effect)) | E (green foxtail) weedkilling efficacy grade (green foxtail [8]): 1 (weed kill ratio 5% or more, less than 20%) | I (Italian ryegrass) weedkilling efficacy grade (Italian ryegrass [9]): 0 (weed kill ratio 5% or less (practically no effect)) | L (redroot pigweed) weedkilling efficacy grade (redroot pigweed [10]): 0 (weed kill ratio 5% or less (practically no effect)) | K (Indian mallow) weedkilling efficacy grade (Indian mallow [11]): 0 (weed kill ratio 5% or less (practically no effect)) | K (Indian mallow) weedkilling efficacy grade (Indian mallow [12]): 0 (weed kill ratio 5% or less (practically no effect)) | D (crabgrass) weedkilling efficacy grade (crabgrass [13]): 3 (weed kill ratio 40% or more, less than 70%) | M (fig-leafed goosefoot) weedkilling efficacy grade (fig-leafed goosefoot [14]): 4 (weed kill ratio 70% or more, less than 90%) | J (common wind-grass) weedkilling efficacy grade (common wind-grass [15]): 1 (weed kill ratio 5% or more, less than 20%) | b (directly sown rice) effect on crop grade (directly sown rice [16]): 0 (weed kill ratio 5% or less (practically no effect)) | g (rapeseed) effect on crop grade (rapeseed [17]): 0 (weed kill ratio 5% or less (practically no effect)) | e (wheat) effect on crop grade (wheat [18]): 0 (weed kill ratio 5% or less (practically no effect)) | O (catchweed) weedkilling efficacy grade (catchweed [19]): 3 (weed kill ratio 40% or more, less than 70%) | B (bulrush) weedkilling efficacy grade (bulrush [20]): 5 (weed kill ratio 90% or more, (practically complete withering)) | F (barnyard grass) weedkilling efficacy grade (barnyard grass [21]): 0 (weed kill ratio 5% or less (practically no effect)) | G (wild oat) weedkilling efficacy grade (wild oat [22]): 0 (weed kill ratio 5% or less (practically no effect)) | P (birds-eye speedwell) weedkilling efficacy grade (birds-eye speedwell): 0 (weed kill ratio 5% or less (practically no effect)) | N (chickweed) weedkilling efficacy grade (chickweed [23]): 2 (weed kill ratio 20% or more, less than 40%) | C (oval-leafed pondweed) weedkilling efficacy grade (oval-leafed pondweed [24]): 3 (weed kill ratio 40% or more, less than 70%) | H (black-grass) weedkilling efficacy grade (black-grass [25]): 0 (weed kill ratio 5% or less (practically no effect)) | N (chickweed) weedkilling efficacy grade (chickweed [26]): 3 (weed kill ratio 40% or more, less than 70%) | A (barnyard grass) weedkilling efficacy grade (barnyard grass [27]): 2 (weed kill ratio 20% or more, less than 40%) | J (common wind-grass) weedkilling efficacy grade (common wind-grass [28]): 3 (weed kill ratio 40% or more, less than 70%) | a (transplanted rice) effect on crop grade (transplanted rice): 0 (weed kill ratio 5% or less (practically no effect)) | c (corn) effect on crop grade (corn [29]): 0 (weed kill ratio 5% or less (practically no effect)) | b (directly sown rice) effect on crop grade (directly sown rice [30]): 0 (weed kill ratio 5% or less (practically no effect)) | E (green foxtail) weedkilling efficacy grade (green foxtail [31]): 3 (weed kill ratio 40% or more, less than 70%) | F (barnyard grass) weedkilling efficacy grade (barnyard grass [32]): 3 (weed kill ratio 40% or more, less than 70%) | L (redroot pigweed) weedkilling efficacy grade (redroot pigweed [33]): 0 (weed kill ratio 5% or less (practically no effect)) | B (bulrush) weedkilling efficacy grade (bulrush [34]): 4 (weed kill ratio 70% or more, less than 90%) | e (wheat) effect on crop grade (wheat [35]): 0 (weed kill ratio 5% or less (practically no effect)) | A (barnyard grass) weedkilling efficacy grade (barnyard grass [36]): 1 (weed kill ratio 5% or more, less than 20%) | I (Italian ryegrass) weedkilling efficacy grade (Italian ryegrass [37]): 0 (weed kill ratio 5% or less (practically no effect)) | c (corn) effect on crop grade (corn [38]): 0 (weed kill ratio 5% or less (practically no effect)) | f (beet) effect on crop grade (beet [39]): 0 (weed kill ratio 5% or less (practically no effect)) | d (soybean) effect on crop grade (soybean [40]): 0 (weed kill ratio 5% or less (practically no effect)) | G (wild oat) weedkilling efficacy grade (wild oat [41]): 0 (weed kill ratio 5% or less (practically no effect)) | C (oval-leafed pondweed) weedkilling efficacy grade (oval-leafed pondweed [42]): 3 (weed kill ratio 40% or more, less than 70%)

— patent publication US9738634B2, “Heterocyclic amide compound and herbicide” (SYNGENTA PARTICIPATIONS AG, priority 2013, dated 2017)
